Test results published in patent US5106856A, “[(Arylalkylpiperidin-4-yl)methyl]-2a,3,4,5-tetrahydro- 1(2H)-acenaphthylen-1-ones and related compounds” (priority 1991, dated 1992).
pIC50: −log10 of the molar value. Where a name gives a salt, the structure may show the parent alone.

Key:
[1] = target: T1, Brain AChE (acetylcholinesterase, rat striatum) (Rattus norvegicus, UniProt P37136); experiment: In vitro inhibition of acetylcholinesterase activity in rat striatum; format: biochemical, rat (male Wistar); settings: read-out: Inhibitory Concentration, Brain AChE
T1 construct: corpora striata dissected free, weighed and homogenized in 19 volumes; from tissue; host or cells: corpus striatum homogenate of male Wistar rats
Experimental: Cholinesterases are found throughout the body, both in the brain and in serum. However, only brain acetylcholinesterase (AChE) distribution is correlated with central cholinergic innervation.
The method described below was used in this invention for assaying cholinesterase activity.
4. A 2 mM stock solution of the test drug is made up in a suitable solvent and q.s. to volume with 0.5 mM DTNB (reagent 3). Drugs are serially diluted (1:10) such that the final concentration (in cuvette) is 10^-4 M and screened for activity. If active, IC50 values are determined from the inhibitory activity of subsequent concentrations.
Male Wistar rats are decapitated, brains rapidly removed, corpora striata dissected free, weighed and homogenized in 19 volumes (approximately 7 mg protein/ml) of 0.05M phosphate buffer, pH 7.2 using a Potter-Elvehjem homogenizer. A 25 microliter aliquot of the homogenate is added to 1.0 milliter vehicle or various concentrations of the test drug and preincubated for 10 minutes at 37° C.
Enzyme activity is measured with the Beckman DU-50 spectrophotometer. This method can be used for IC50 determinations and for measuring kinetic constants.
Substrate concentration is 10 mM diluted 1:2 in assay yielding final concentration of 5 mM. DTNB concentration is 0.5 mM yielding 0.25 mM final concentration. [formula]
IC50 values are calculated from log-probit analysis.

[2] = system: Scopolamine Induced Memory Deficit; experiment: Dark Avoidance Assay (reversal of scopolamine induced memory deficit); format: in vivo; settings: mice, s.c., tested again 24 hours later
Experimental: In this assay mice are tested for their ability to remember an unpleasant stimulus for a period of 24 hours. A mouse is placed in a chamber that contains a dark compartment; a strong incandescent light drives it to the dark compartment, where an electric shock is administered through metal plates on the floor. The animal is removed from the testing apparatus and tested again, 24 hours later, for the ability to remember the electric shock.
If scopolamine, an anticholinergic that is known to cause memory impairment, is administered before an animal's initial exposure to the test chamber, the animal re-enters the dark compartment shortly after being placed in the test chamber 24 hours later. This effect of scopolamine is blocked by an active test compound, resulting in a greater interval before re-entry into the dark compartment.
The results for an active compound are expressed as the percent of a group of animals in which the effect of scopolamine is blocked, as manifested by an increased interval between being placed in the test chamber and re-entering the dark compartment.
Results of this assay for some of the compounds of this invention and those for tacrine and pilocarpine (reference compounds) are presented in Table 2.

T1 sequence (P37136 32-614): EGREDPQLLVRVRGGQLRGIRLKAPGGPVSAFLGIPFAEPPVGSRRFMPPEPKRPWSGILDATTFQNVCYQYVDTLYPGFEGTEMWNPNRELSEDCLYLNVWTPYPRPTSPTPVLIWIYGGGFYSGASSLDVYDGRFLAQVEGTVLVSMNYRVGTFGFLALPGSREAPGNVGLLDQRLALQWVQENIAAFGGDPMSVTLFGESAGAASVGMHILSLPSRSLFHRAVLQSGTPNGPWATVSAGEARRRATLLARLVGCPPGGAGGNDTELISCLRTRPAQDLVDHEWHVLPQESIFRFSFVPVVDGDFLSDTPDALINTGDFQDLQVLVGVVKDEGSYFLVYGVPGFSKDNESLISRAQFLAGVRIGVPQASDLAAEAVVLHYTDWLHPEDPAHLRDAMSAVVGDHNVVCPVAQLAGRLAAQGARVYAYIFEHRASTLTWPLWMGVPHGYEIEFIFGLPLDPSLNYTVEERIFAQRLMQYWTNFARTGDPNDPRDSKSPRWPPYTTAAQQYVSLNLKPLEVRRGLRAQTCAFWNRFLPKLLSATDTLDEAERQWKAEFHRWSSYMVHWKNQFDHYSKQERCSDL

Compound | pIC50 [1] | % of Animals with Scopolamine Induced Memory Deficit Reversal ([2]; 0.1 mg/kg of body weight) | % of Animals with Scopolamine Induced Memory Deficit Reversal ([2]; 5 mg/kg of body weight)
O=C1c2cccc3c2C(CCC3)C1CC1CCN(Cc2ccccc2)CC1 (stereo not shown) [2-[(N-Benzylpiperidin-4-yl)methyl]-2a,3,4,5-tetrahydro-1(2H)-acenaphthylen-1-one hydrochloride] | 5.99 |  | 
O=C1c2cccc3c2C(CCC3)C1CC1CCN(Cc2cccc(F)c2)CC1 (stereo not shown) [2-[[N-(3-Fluorobenzyl)piperidin-4-yl]methyl]-2a,3,4,5-tetrahydro-1(2H)-acenaphthylen-1-one hydrochloride] | 5.39 | 20% | 
CC[C@@H]1C(=O)OC[C@@H]1Cc1cncn1C [Pilocarpine, reference compound] |  |  | 23%
